{
  "source": "patent US20250114377A1",
  "about": "“TWO-PRONGED TREATMENT FOR NIEMANN PICK TYPE C DISEASE” (UNIVERSITY OF NOTRE DAME DU LAC, priority 2022, published 2025)",
  "key": {"lysosomal tubulation": {"test_system": "lysosomal tubulation", "test": "Rescue of lysosomal tubulation with purified oxysterols in LDL-depleted media (FIG. 4)", "type": "cell-based", "description": "FIG. 4. Rescue of Lysosomal Tubulation with Purified Oxysterols. Measurements of lysosomal tubulation comparing control complete media (Control) to media depleted of LDL (LDL−) and depleted media supplemented with 27-hydroxycholesterol (27-HC), 24-hydroxycholesterol (24-HC) or 25-hydroxycholesterol (25-HC).\nFixed and live-cell imaging was performed on COS-7 cells grown in Dulbecco's Modified Eagle's Medium (DMEM) supplemented with 10% fetal bovine serum, 1% L-glutamine, and penicillin/streptomycin (Sigma-Aldrich). Transfections were performed using either Lipofectamine (Life Technologies), X-treme Gene DNA Transfection reagent (Roche, Indianapolis, IN) or Nanofect (Allstem, Richmond, CA). J774A.1 mouse macrophages were provided and cultured in the same media. Cells were tested for contamination using PCR-based test kits (Sartorius, Inc.; Cat #SMB95-1001).\nMicroscopy experiments were performed on a Zeiss Axiovert 200M (Thornwood, NY) run by Metamorph software (Sunnyvale, CA). Fixed and live cell imaging data was collected using either a Photometrics Coolsnap HQ or Cascade 1k CCD camera (Tucson, AZ). Timelapse imaging of cells expressing NPC1-EGFP and mCherry-StARD9 utilized a Dual-view camera (Photometrics) adapter to allow simultaneous acquisition of green and red channels at each timepoint. Kymographs were generated in Metamorph using a 1p m slice from each frame.\n(§1) To test this idea, we treated either NPC1 mutant (null or I1061T) or StARD9 mutant (null or truncation mutant) cells with 27-HC in a cocktail that delivers it into the cytoplasm independent of receptor-mediated endocytosis. […] Next, we treated NPC1(−/−) mice with 27-HC by i.p. delivery."}, "[1]": {"test_system": "NPC1 mutant (null or I1061T) cells", "test": "Rescue of lysosomal tubulation by 27-HC in NPC1 mutant cells (FIG. 5)", "type": "cell-based", "settings": "27-HC in a cocktail that bypasses receptor-mediated endocytosis", "from_the_text": "FIG. 5. Impact of NPC1 and StARD9 Mutations on Rescue of Lysosomal Tubulation by 27-Hydroxycholesterol (27-HC). The ability of 27-HC to rescue lysosomal tubulation after depletion of NPC1 (shRNA-NPC1) or StARD9 (shRNA-STARD9) was compared to cells expressing the NPC1 (I1061T)-eGFP mutant (I1061T) or a eGFP-StARD9 construct expressing amino acids 1-4483 (STARD9-ΔSTART). ***—p<0.005; ns (not significant).\nas §1"}, "NPC1(−/−) mice": {"test_system": "NPC1(−/−) mice", "test": "27-HC treatment of NPC1(−/−) mice by intraperitoneal injection", "type": "in vivo", "settings": "i.p.", "description": "FIG. 7A-C. Behavioral Analysis of NPC1(−/−) Mice Treated with 27-HC. NPC1(−/−) treated with 0 mg/kg (●) or 10 mg/kg (▴) 27-HC once per week by intraperitoneal injection were tested using (A) Tremor Scores p=0.01), (B) Rotarod Analysis (p=0.0037) or (C) Coathanger Tests (p=0.0229).\nFIG. 8. Impact of 27-HC Treatment on NPC1 (−/−) Mice. Immunohistochemical staining of cerebella stained for calbindin after treatment with either Omg/kg or 10 mg·kg 27-HC once per week by intraperitoneal injection. Brown staining indicates Purkinje cell survival in lobes of the cerebellum (I, V, X).\nFIG. 9A-C. Impact of 27-HC Treatment on NPC1 (−/−) Mice. Quantification of Purkinje cells preservation at days (A) P42, (B) P63 or (C) P77. Lobes are binned as I-V, VI-VII, VIII, or IX-X. A Student's t-test was calculated on total Purkinje cell counts from each timepoint (p-values).\nFIG. 10. Impact of 27-HC Treatment on NPC1 (−/−) Mice. Kaplan-Meier lifespan analysis of NPC1 (−/−) mice treated with either 0 mg/kg (dashed line) or 10 mg/kg (solid line) 27-HC.\nas §1"}, "[2]": {"test_system": "StARD9(−/−)/NPC1 (I1061T/I1061T) mice", "test": "27-HC treatment of mice mutant for both NPC1 and StARD9 / StARD9 knock-out mice", "type": "in vivo", "settings": "5 mg/kg three times per week oral gavage; vs NPC1 (I1061T/I1061T) mice; p=0.0001", "description": "FIG. 12. Impact of 27-HC Treatment on NPC1 (I1061T/I1061T)/StARD9 (−/−) Mice. Kaplan-Meier lifespan analysis of NPC1 (I1061T/I1061T) mice (solid line) to StARD9(−/−)/NPC1 (I1061T/I1061T) mice (dashed line) each treated with 5 mg/kg 27-HC three times per week by oral gavage.\nMutations in the NPC1 gene affect two independent lysosomal functions. The first is the generation of lysosomal tubules as a mechanism to deliver intracellular cholesterol to other membrane-bound compartments. Because this function is impaired in NPC disease, we investigated the protein components necessary for tubule projection. We identified 27-HC as a signaling molecule that stimulates lysosomal tubulation and is not provided properly to lysosomal membrane to elicit tubulation in NPC disease. To correct this defect, we provide pure 27-HC in a cocktail that bypasses endocytosis. […] We have also tested this therapy in two different transgenic strains of mice with NPC1 mutations. […] Because we know the molecular target for 27-HC (StARD9), we tested 27-HC treatment in mice where we removed the StARD9 gene. […] This confirms the molecular target for 27-HC treatment and is consistent with our proposed model for the defects in NPC disease. Independent of the role for NPC1 in lysosomal tubulation, NPC1 is the “receptor” for the pro-apoptotic protein STING. […]"}},
  "note": "Entries after “also recorded” stand apart in the source; their conditions may differ.",
  "data": [
    {"compound": "C[C@@H](CO)CCC[C@@H](C)[C@H]1CC[C@H]2[C@@H]3CC=C4C[C@@H](O)CC[C@]4(C)[C@H]3CC[C@]12C", "note": "[27-HC, 27-hydroxycholesterol]", "values": [
      {"measurement": "Potency as signaling molecule for StARD9 among cholesterol and individual oxysterols", "setting": "lysosomal tubulation", "result": "most potent candidate"},
      {"measurement": "Rescue of lysosomal tubulation in NPC1 mutant cells", "setting": "[1]", "result": "rescued lysosomal tubulation in NPC1 mutant; also recorded: corrects the lysosomal tubulation defects"},
      {"measurement": "Lifespan (Kaplan-Meier)", "setting": "NPC1(−/−) mice; 10 mg/kg vs 0 mg/kg, p=0.0214", "result": "extended the lifespan of the mice; also recorded: Extension of lifespan was significant"},
      {"measurement": "Onset of symptoms", "setting": "NPC1(−/−) mice; vs vehicle alone", "result": "delayed the onset of symptoms"},
      {"measurement": "Purkinje cell preservation", "setting": "NPC1(−/−) mice; vs vehicle alone", "result": "preserved Purkinje cells"},
      {"measurement": "Severity of symptoms", "setting": "NPC1(−/−) mice; vs vehicle alone", "result": "reduced the severity of symptoms"},
      {"measurement": "Benefit of 27-HC treatment (lifespan) in mice lacking StARD9", "setting": "[2]", "result": "the benefit of the 27-HC treatment was lost; also recorded: significantly less effective; also recorded: does not provide any benefit"}
    ]}
  ]
}
